# In patent US9174952B2, “Substituted 3-thiazoloamino-propionic acid derivatives and their use as pharmaceuticals” (SANOFI, priority 2011, dated 2015):
# Molecular target: T1, Recombinant human cathepsin A (Homo sapiens, UniProt P10619)
# T1 construct: Recombinant human cathepsin A (residues 29-480, with a C-terminal 10-His tag); 10-His (C); purchased R&D Systems 1049-SE
# T1 sequence (P10619 29-326 limits assumed): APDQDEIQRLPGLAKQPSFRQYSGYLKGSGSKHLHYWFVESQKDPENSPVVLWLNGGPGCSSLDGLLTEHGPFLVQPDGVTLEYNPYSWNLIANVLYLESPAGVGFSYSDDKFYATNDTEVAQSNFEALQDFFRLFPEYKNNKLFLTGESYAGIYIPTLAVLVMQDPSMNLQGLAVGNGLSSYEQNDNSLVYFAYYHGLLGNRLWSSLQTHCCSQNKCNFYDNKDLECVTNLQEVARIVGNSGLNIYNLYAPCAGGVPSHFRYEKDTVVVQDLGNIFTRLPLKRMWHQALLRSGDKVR
# T1 sequence (P10619 327-480 limits assumed): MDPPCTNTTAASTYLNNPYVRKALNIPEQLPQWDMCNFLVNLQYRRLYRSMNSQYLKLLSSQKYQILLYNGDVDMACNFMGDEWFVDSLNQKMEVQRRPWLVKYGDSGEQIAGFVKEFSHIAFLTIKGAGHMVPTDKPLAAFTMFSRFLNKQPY
# Assay: Cathepsin A inhibitory activity
# Type: biochemical
# Conditions: activated recombinant human cathepsin A 833 ng/ml, Bodipy FL-labeled bradykinin substrate 2 μM, pH 5.5, room temperature
# Method: a) Cathepsin A Inhibitory Activity
# Recombinant human cathepsin A (residues 29-480, with a C-terminal 10-His tag; R&D Systems, #1049-SE) was proteolytically activated with recombinant human cathepsin L (R&D Systems, #952-CY). Briefly, cathepsin A was incubated at 10 μg/ml with cathepsin L at 1 μg/ml in activation buffer (25 mM 2-(morpholin-4-yl)-ethanesulfonic acid (MES), pH 6.0, containing 5 mM dithiothreitol (DTT)) for 15 min at 37° C. Cathepsin L activity was then stopped by the addition of the cysteine protease inhibitor E-64 (N-(trans-epoxysuccinyl)-L-leucine-4-guanidinobutylamide; Sigma-Aldrich, # E3132; dissolved in activation buffer/DMSO) to a final concentration of 10 μM.
# The activated cathepsin A was diluted in assay buffer (25 mM MES, pH 5.5, containing 5 mM DTT) and mixed with the test compound (dissolved in assay buffer containing (v/v) 3% DMSO) or, in the control experiments, with the vehicle in a multiple assay plate. After incubation for 15 min at room temperature, as substrate then bradykinin carrying an N-terminal ®Bodipy FL (4,4-difluoro-5,7-dimethyl-4-bora-3a,4a-diaza-s-indacene-3-propionyl) label (JPT Peptide Technologies GmbH; dissolved in assay buffer) was added to the mixture. The final concentration of cathepsin A was 833 ng/ml and the final concentration of labeled bradykinin 2 μM. After incubation for 15 min at room temperature the reaction was stopped by the addition of stop buffer (130 mM 2-(4-(2-hydroxy-ethyl)-piperazin-1-yl)-ethanesulfonic acid, pH 7.4, containing (v/v) 0.013% ®Triton X-100, 0.13% Coating Reagent 3 (Caliper Life Sciences), 6.5% DMSO and 20 μM ebelactone B (Sigma, # E0886)).
# Uncleaved substrate and product were then separated by a microfluidic capillary electrophoresis on a LabChip® 3000 Drug Discovery System (12-Sipper-Chip; Caliper Life Sciences) and quantified by determination of the respective peak areas. Substrate turnover was calculated by dividing product peak area by the sum of substrate and product peak areas, and the enzyme activity and the inhibitory effect of the test compound thus quantified. From the percentage of inhibition of cathepsin A activity observed with the test compound at several concentrations, the inhibitory concentration IC50, i.e. the concentration which effects 50% inhibition of enzyme activity was, calculated.
row,IC50 [nM],Structure (SMILES)
1,694,"O=C(O)C[C@H](NC(=O)c1csc(-c2ccccc2F)n1)c1cccc(Cl)c1 [Example 43, (S)-3-(3-Chloro-phenyl)-3-{[2-(2-fluoro-phenyl)-thiazole-4-carbonyl]-amino}-propionic acid]"
2,1750,"O=C(O)C[C@H](NC(=O)c1nc(-c2ccccc2)cs1)c1ccccc1F [Example 53, (S)-3-(2-Fluoro-phenyl)-3-[(4-phenyl-thiazole-2-carbonyl)-amino]-propionic acid]"
3,2680,"O=C(O)C[C@H](NC(=O)c1csc(-c2ccc(Cl)cc2)n1)c1ccc(Cl)cc1Cl [Example 102, (S)-3-{[2-(4-Chloro-phenyl)-thiazole-4-carbonyl]-amino}-3-(2,4-dichloro-phenyl)-propionic acid]"
4,3370,"Cc1ccccc1-c1nc(C(=O)NC(CC(=O)O)Cc2ccccc2)cs1 (stereo not shown) [Example 133, 4-Phenyl-3-[(2-o-tolyl-thiazole-4-carbonyl)-amino]-butyric acid]"
5,12600,"O=C(O)CC(Cc1ccccc1)NC(=O)c1csc(-c2ccc(Cl)cc2)n1 (stereo not shown) [Example 127, 3-{[2-(4-Chloro-phenyl)-thiazole-4-carbonyl]-amino}-4-phenyl-butyric acid]"
6,658,"O=C(O)C[C@H](NC(=O)c1csc(-c2ccccc2Cl)n1)c1ccccc1F [Example 76, (S)-3-{[2-(2-Chloro-phenyl)-thiazole-4-carbonyl]-amino}-3-(2-fluoro-phenyl)-propionic acid]"
7,917,"O=C(O)C[C@H](NC(=O)c1nc(-c2ccccc2)cs1)c1cccc(Cl)c1 [Example 65, (S)-3-(3-Chloro-phenyl)-3-[(4-phenyl-thiazole-2-carbonyl)-amino]-propionic acid]"
8,5390,"O=C(O)C[C@H](NC(=O)c1csc(-c2ccc(Cl)cc2)n1)c1ccccc1C(F)(F)F [Example 104, (S)-3-{[2-(4-Chloro-phenyl)-thiazole-4-carbonyl]-amino}-3-(2-trifluoromethyl-phenyl)-propionic acid]"
9,6040,"O=C(NCC(C(=O)O)c1ccccc1)c1csc(-c2ccccc2Cl)n1 (stereo not shown) [Example 118, 3-{[2-(2-Chloro-phenyl)-thiazole-4-carbonyl]-amino}-2-phenyl-propionic acid]"
10,3400,"COc1ccc([C@H](CC(=O)O)NC(=O)c2csc(-c3ccc(Cl)cc3)n2)cc1 [Example 108, (S)-3-{[2-(4-Chloro-phenyl)-thiazole-4-carbonyl]-amino}-3-(4-methoxy-phenyl)-propionic acid]"
11,1480,"O=C(O)C[C@H](NC(=O)c1csc(-c2ccccc2)n1)c1ccccc1F [Example 35, (S)-3-(2-Fluoro-phenyl)-3-[(2-phenyl-thiazole-4-carbonyl)-amino]-propionic acid]"
12,3420,"O=C(O)CC(Cc1ccccc1)NC(=O)c1csc(-c2ccccc2)n1 (stereo not shown) [Example 134, 4-Phenyl-3-[(2-phenyl-thiazole-4-carbonyl)-amino]-butyric acid]"
13,3880,"O=C(O)C[C@H](NC(=O)c1csc(-c2ccc(Cl)cc2)n1)c1ccccc1 [Example 110, (S)-3-{[2-(4-Chloro-phenyl)-thiazole-4-carbonyl]-amino}-3-phenyl-propionic acid]"
14,703,"O=C(O)C[C@H](NC(=O)c1csc(-c2cccc(Cl)c2)n1)c1ccccc1Cl [Example 31, (S)-3-(2-Chloro-phenyl)-3-{[2-(3-chloro-phenyl)-thiazole-4-carbonyl]-amino}-propionic acid]"
15,975,"COc1ccc([C@H](CC(=O)O)NC(=O)c2csc(-c3ccccc3F)n2)cc1 [Example 86, (S)-3-{[2-(2-Fluoro-phenyl)-thiazole-4-carbonyl]-amino}-3-(4-methoxy-phenyl)-propionic acid]"
16,660,"Cc1ccccc1[C@H](CC(=O)O)NC(=O)c1csc(-c2cccc(Cl)c2)n1 [Example 98, (S)-3-{[2-(3-Chloro-phenyl)-thiazole-4-carbonyl]-amino}-3-o-tolyl-propionic acid]"

row,IC50 [nM],Structure (SMILES)
1,282,"O=C(O)C[C@H](NC(=O)c1csc(-c2cccc(Cl)c2Cl)n1)c1ccccc1Cl [Example 28, (S)-3-(2-Chloro-phenyl)-3-{[2-(2,3-dichloro-phenyl)-thiazole-4-carbonyl]-amino}-propionic acid]"
2,> 10000,"Cc1cc(C)n(-c2nc(C(=O)N[C@@H](CC(=O)O)c3ccccc3C)cs2)n1 [Example 6, (S)-3-{[2-(3,5-Dimethyl-pyrazol-1-yl)-thiazole-4-carbonyl]-amino}-3-o-tolyl-propionic acid]"
3,807,"Cc1ccccc1-c1nc(C(=O)N[C@@H](CC(=O)O)c2cccc(Cl)c2)cs1 [Example 39, (S)-3-(3-Chloro-phenyl)-3-[(2-o-tolyl-thiazole-4-carbonyl)-amino]-propionic acid]"
4,1350,"O=C(O)C[C@H](NC(=O)c1csc(-c2ccccc2F)n1)c1ccccc1C(F)(F)F [Example 84, (S)-3-{[2-(2-Fluoro-phenyl)-thiazole-4-carbonyl]-amino}-3-(2-trifluoromethyl-phenyl)-propionic acid]"
5,> 10000,"O=C(O)C[C@H](NC(=O)c1csc(-c2ccc(C(F)(F)F)cc2)n1)c1cccc(F)c1 [Example 50, (S)-3-(3-Fluoro-phenyl)-3-{[2-(4-trifluoromethyl-phenyl)-thiazole-4-carbonyl]-amino}-propionic acid]"
6,23300,"O=C(O)C[C@H](NC(=O)c1csc(-c2ccc(C(F)(F)F)cc2)n1)c1ccccc1C(F)(F)F [Example 38, (S)-3-(2-Trifluoromethyl-phenyl)-3-{[2-(4-trifluoromethyl-phenyl)-thiazole-4-carbonyl]-amino}-propionic acid]"
7,70,"O=C(O)C[C@H](NC(=O)c1csc(-c2ccccc2Cl)n1)c1cccc(Cl)c1Cl [Example 73, (S)-3-{[2-(2-Chloro-phenyl)-thiazole-4-carbonyl]-amino}-3-(2,3-dichloro-phenyl)-propionic acid]"
8,187,"Cc1ccc(-c2nc(C(=O)N[C@@H](CC(=O)O)c3ccccc3C)cs2)cc1 [Example 10, (S)-3-o-Tolyl-3-[(2-p-tolyl-thiazole-4-carbonyl)-amino]-propionic acid]"
9,3940,"O=C(O)CC(NC(=O)c1csc(-c2ccc(Cl)cc2)n1)C1CCCCC1 (stereo not shown) [Example 126, 3-{[2-(4-Chloro-phenyl)-thiazole-4-carbonyl]-amino}-3-cyclohexyl-propionic acid]"
10,148,"O=C(O)C[C@H](NC(=O)c1csc(-c2ccccc2Cl)n1)c1ccc(F)cc1 [Example 80, (S)-3-{[2-(2-Chloro-phenyl)-thiazole-4-carbonyl]-amino}-3-(4-fluoro-phenyl)-propionic acid]"
11,> 10000,"O=C(N[C@@H](Cc1ccc(Cl)cc1)C(=O)O)c1csc(-c2ccccc2Cl)n1 [Example 81, (S)-3-(4-Chloro-phenyl)-2-{[2-(2-chloro-phenyl)-thiazole-4-carbonyl]-amino}-propionic acid]"
12,1100,"O=C(O)CC(NC(=O)c1csc(-c2cccc(Cl)c2Cl)n1)C1CCCCC1 (stereo not shown) [Example 130, 3-Cyclohexyl-3-{[2-(2,3-dichloro-phenyl)-thiazole-4-carbonyl]-amino}-propionic acid]"
13,3730,"O=C(O)C[C@H](NC(=O)c1csc(-c2cccc(Cl)c2)n1)c1cccc(F)c1 [Example 94, (S)-3-{[2-(3-Chloro-phenyl)-thiazole-4-carbonyl]-amino}-3-(3-fluoro-phenyl)-propionic acid]"
14,303,"Cc1ccccc1-c1nc(C(=O)N[C@@H](CC(=O)O)c2ccc(F)cc2)cs1 [Example 54, (S)-3-(4-Fluoro-phenyl)-3-[(2-o-tolyl-thiazole-4-carbonyl)-amino]-propionic acid]"
15,3700,"O=C(N[C@@H](Cc1ccc(Cl)cc1)C(=O)O)c1csc(-c2ccc(C(F)(F)F)cc2)n1 [Example 107, (S)-3-(4-Chloro-phenyl)-2-{[2-(4-trifluoromethyl-phenyl)-thiazole-4-carbonyl]-amino}-propionic acid]"
